Measured values reported in PubChem BioAssay (NCI).
Values joined by “and” are separate entries in the source; they are usually repeats but may differ in a detail not shown here. Identical values can stand only once.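 Protocol summary: plate cells (96-well), add compound at 5 concentrations, incubate 48 h, interpolate endpoints linearly. At the GI50, growth is halved. Definition used: TGI = concentration required for complete inhibition of growth.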

Test system: MDA-MB-468 breast
Assay: DTP human tumour cell line panel, 48 h

## COc1cccc(C(=O)c2sc(Nc3ccc(N4CCN(C(C)C)CC4)cc3)nc2N)c1
  GI50: 1620 nM
  TGI: 9220 nM

## Cc1ccc(C(=Nc2ccccc2)N=P(c2ccccc2)(c2ccccc2)c2ccccc2)cc1
  GI50: 944 nM
  TGI: 4300 nM

## CC(=O)OC[C@H]1OC(O)C=C[C@@H]1OC(C)=O (stereo not given in full)
  GI50: 82500 nM
  TGI: 180000 nM

## COc1ccc(-c2nn(C(=O)NCCN(C)C)cc2-c2ccncc2)cc1Cl
  GI50: 1950 nM
  TGI: 11700 nM

## CCOC(=O)C1=C(C)N=C2SC=C(c3ccccc3)N2[C@H]1c1cn[nH]c1-c1ccc(Cl)cc1
  GI50: 3540 nM
  TGI: 16600 nM

## CCOC(=O)c1ccc2c(c1)nc(-c1ccc(Cl)cc1)n2-c1cc(C(C)(C)C)[nH]n1
  GI50: 2120 nM
  TGI: 8180 nM

## CS(=O)(=O)Nc1cc(-c2ccc3ncc(C#N)c(Nc4cccc(Cl)c4F)c3c2)cnc1Cl
  GI50: 116 nM
  TGI: 1390 nM

## CCN(Cc1cccnc1)c1ccc(CO)c(Cl)c1
  GI50: 29 nM
  TGI: 104 nM

## Cc1ccc(C(=O)Nc2ccc(CNCCN3CCOCC3)c(C(F)(F)F)c2)cc1C#Cc1cnc2cccnn12
  GI50: 2150 nM
  TGI: 6190 nM

## C/C(=N\NC(=O)c1ccc(C(C)(C)C)cc1)c1ccc(O)cc1O
  GI50: 1020 nM
  TGI: 5100 nM

## OCCCc1n(Cc2ccc3ccccc3c2)c2ccccc2[n+]1Cc1ccc2ccccc2c1
  GI50: 291 nM
  TGI: 1370 nM

## OCc1cn(Cc2ccc(Cl)cc2)c2ccccc12
  GI50: < 10 nM

## COc1ccc(-c2cc(=O)oc3ccc(Cl)cc23)cc1F
  GI50: 110 nM and 29.5 nM
  TGI: 644 nM and 97.9 nM

## Cc1ccc(/C=C2\COc3ccc(O)c(O)c3C2=O)cc1
  GI50: 907 nM
  TGI: 2990 nM

## COc1cc2cc(c1Cl)N(C)C(=O)C[C@H](OC(=O)[C@H](C)N(C)C(=O)CCS)C[C@]1(C)O[C@H]1[C@H](C)[C@@H]1C[C@@](O)(NC(=O)O1)[C@H](OC)/C=C/C=C(\C)C2
  GI50: < 5 nM
  TGI: < 5 nM

## O=C1c2ccccc2C(=O)c2c(Nc3ccc(CCO)cc3)ccc(O)c21
  GI50: 1430 nM
  TGI: 22800 nM

## Cc1nc2ccc(Nc3nc(Cl)nc(Nc4ccc(F)cc4)n3)cc2n1Cc1ccccc1
  GI50: 1860 nM
  TGI: 3780 nM

## COC1C(O)CC(OC2CC(OC3CC(O[C@@H]4C(=O)c5c(cc6cc(OC7CC(OC8CC(O)C(O)C(C)O8)C(O)C(C)O7)c(C)c(O)c6c5O)CC4[C@H](OC)C(=O)C(C)=O)OC(C)C3O)OC(C)C2O)OC1C (stereo not given in full)
  GI50: 16.1 nM
  TGI: 52.1 nM

## O=C1Nc2ccccc2/C1=C/C(=O)c1ccc(N2CCCC2)cc1
  GI50: 1960 nM
  TGI: 6590 nM

## CS(=O)(=O)c1ccc(Oc2cc(F)cc(C#N)c2)c2c1[C@H](O)[C@H](F)[C@H]2F
  GI50: > 100000 nM
  TGI: > 100000 nM

## C#CCN(C)CCCOc1ccc(NC(=O)CCCCCCC(=O)NO)cc1Cl
  GI50: 853 nM
  TGI: 4980 nM

## Cc1ccc2c(n1)C(=O)C(Cl)=C(Nc1cccc(C)c1C)C2=O
  GI50: 1530 nM
  TGI: 3250 nM

## COc1cc(/C=C2\CN(S(=O)(=O)c3ccc(C)cc3)C/C(=C\c3cc(CN4CCOCC4)c(O)c(OC)c3)C2=O)cc(CN2CCOCC2)c1O
  GI50: 4050 nM
  TGI: > 100000 nM

## COc1ccc([As]=[As]c2ccc(OC)c(NCS(=O)(=O)O)c2)cc1NCS(=O)(=O)O (stereo not given)
  GI50: 1290 nM
  TGI: 3060 nM

## O=C(CI)OCC(COC(=O)CI)OC(=O)CI
  GI50: 2340 nM
  TGI: 7910 nM

## CC(C)Cc1ccc(C(C)C(=O)NCc2ccc(Cn3c(=O)sn(CCCCl)c3=O)cc2)cc1 (stereo not given)
  GI50: 1350 nM
  TGI: 3010 nM

## CCN(Cc1ccccc1F)c1ccc(CO)c(Cl)c1
  TGI: 13 nM

## Nc1ncc(-c2ccc3ncnc(N4CCc5ccc(Cl)cc54)c3c2)cn1
  GI50: 479 nM
  TGI: 2080 nM

## CS(=O)(=O)Nc1ccc(Nc2c3ccccc3nc3cc([N+](=O)[O-])ccc23)cc1
  GI50: 304 nM
  TGI: 2020 nM

## CCN(CC)c1ccc(C2=NN(C(C)=O)C(c3cc(OC)c(OC)c(OC)c3)C2)cc1 (stereo not given)
  GI50: 256 nM
  TGI: 4100 nM

## COc1ccc(C(=O)/C=C/c2c(OC)cc(OC)cc2OC)c(OC)c1
  GI50: 1590 nM
  TGI: 4660 nM

## CC(C)Sc1nc(Nc2ccc(S(N)(=O)=O)cc2)c(C#N)c(-c2ccc(F)cc2)n1
  GI50: 4590 nM
  TGI: 18000 nM

## CC12OC(CC(O)C1O)n1c3ccccc3c3c4c(c5c6ccccc6n2c5c31)C(=O)N(CCN1CCCC1)C4=O (stereo not given)
  GI50: 1000 nM
  TGI: 3110 nM

## COc1ccc(O)c2c(=O)c3c(OC)cc4c(c3oc12)[C@@H]1C=CO[C@@H]1O4
  GI50: 131 nM
  TGI: 447 nM

## Nc1ccn(C2OC(CO)C(O)C2(F)F)c(=O)n1 (stereo not given)
  GI50: 18 nM
  TGI: 55.8 nM

## Fc1ccc(-c2nc(C(Cl)Cl)nc3cc(-c4ccccc4)nn23)cc1
  GI50: 2140 nM
  TGI: 4950 nM
